Consider 22 compounds from patent US12065436B2, “Cardiac sarcomere inhibitors” (Cytokinetics, Inc., priority 2018, dated 2024).

Molecules are shown by their SMILES.

The target of this experiment is bovine cardiac myofibrils (full-length cardiac myosin ATPase in the native sarcomere) (Bos taurus (Bovine), UniProt Q9BE39). Nature of the experiment: Skinned bovine cardiac myofibril ATPase assay (PK/LDH-coupled). It counts as biochemical. The following applies: Ca2+ activating to 75% of maximal rate; for CDMF75 IC15: concentration giving 15% inhibition; for IC50: read-out: CDMF75 IC50. In a few lines:
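Triton-skinned bovine left-ventricle myofibrils (1 mg/mL) in PM 12 buffer (12 mM PIPES, 2 mM MgCl2, pH 6.8) with 50 μM ATP, 0.6 mM EGTA and CaCl2 set for 50% or 75% activation. Steady-state ATPase inhibition followed by PK/LDH-coupled NADH oxidation at 340 nm.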

bovine cardiac myofibrils (full-length cardiac myosin ATPase in the native sarcomere), sequence (Q9BE39 whole entry): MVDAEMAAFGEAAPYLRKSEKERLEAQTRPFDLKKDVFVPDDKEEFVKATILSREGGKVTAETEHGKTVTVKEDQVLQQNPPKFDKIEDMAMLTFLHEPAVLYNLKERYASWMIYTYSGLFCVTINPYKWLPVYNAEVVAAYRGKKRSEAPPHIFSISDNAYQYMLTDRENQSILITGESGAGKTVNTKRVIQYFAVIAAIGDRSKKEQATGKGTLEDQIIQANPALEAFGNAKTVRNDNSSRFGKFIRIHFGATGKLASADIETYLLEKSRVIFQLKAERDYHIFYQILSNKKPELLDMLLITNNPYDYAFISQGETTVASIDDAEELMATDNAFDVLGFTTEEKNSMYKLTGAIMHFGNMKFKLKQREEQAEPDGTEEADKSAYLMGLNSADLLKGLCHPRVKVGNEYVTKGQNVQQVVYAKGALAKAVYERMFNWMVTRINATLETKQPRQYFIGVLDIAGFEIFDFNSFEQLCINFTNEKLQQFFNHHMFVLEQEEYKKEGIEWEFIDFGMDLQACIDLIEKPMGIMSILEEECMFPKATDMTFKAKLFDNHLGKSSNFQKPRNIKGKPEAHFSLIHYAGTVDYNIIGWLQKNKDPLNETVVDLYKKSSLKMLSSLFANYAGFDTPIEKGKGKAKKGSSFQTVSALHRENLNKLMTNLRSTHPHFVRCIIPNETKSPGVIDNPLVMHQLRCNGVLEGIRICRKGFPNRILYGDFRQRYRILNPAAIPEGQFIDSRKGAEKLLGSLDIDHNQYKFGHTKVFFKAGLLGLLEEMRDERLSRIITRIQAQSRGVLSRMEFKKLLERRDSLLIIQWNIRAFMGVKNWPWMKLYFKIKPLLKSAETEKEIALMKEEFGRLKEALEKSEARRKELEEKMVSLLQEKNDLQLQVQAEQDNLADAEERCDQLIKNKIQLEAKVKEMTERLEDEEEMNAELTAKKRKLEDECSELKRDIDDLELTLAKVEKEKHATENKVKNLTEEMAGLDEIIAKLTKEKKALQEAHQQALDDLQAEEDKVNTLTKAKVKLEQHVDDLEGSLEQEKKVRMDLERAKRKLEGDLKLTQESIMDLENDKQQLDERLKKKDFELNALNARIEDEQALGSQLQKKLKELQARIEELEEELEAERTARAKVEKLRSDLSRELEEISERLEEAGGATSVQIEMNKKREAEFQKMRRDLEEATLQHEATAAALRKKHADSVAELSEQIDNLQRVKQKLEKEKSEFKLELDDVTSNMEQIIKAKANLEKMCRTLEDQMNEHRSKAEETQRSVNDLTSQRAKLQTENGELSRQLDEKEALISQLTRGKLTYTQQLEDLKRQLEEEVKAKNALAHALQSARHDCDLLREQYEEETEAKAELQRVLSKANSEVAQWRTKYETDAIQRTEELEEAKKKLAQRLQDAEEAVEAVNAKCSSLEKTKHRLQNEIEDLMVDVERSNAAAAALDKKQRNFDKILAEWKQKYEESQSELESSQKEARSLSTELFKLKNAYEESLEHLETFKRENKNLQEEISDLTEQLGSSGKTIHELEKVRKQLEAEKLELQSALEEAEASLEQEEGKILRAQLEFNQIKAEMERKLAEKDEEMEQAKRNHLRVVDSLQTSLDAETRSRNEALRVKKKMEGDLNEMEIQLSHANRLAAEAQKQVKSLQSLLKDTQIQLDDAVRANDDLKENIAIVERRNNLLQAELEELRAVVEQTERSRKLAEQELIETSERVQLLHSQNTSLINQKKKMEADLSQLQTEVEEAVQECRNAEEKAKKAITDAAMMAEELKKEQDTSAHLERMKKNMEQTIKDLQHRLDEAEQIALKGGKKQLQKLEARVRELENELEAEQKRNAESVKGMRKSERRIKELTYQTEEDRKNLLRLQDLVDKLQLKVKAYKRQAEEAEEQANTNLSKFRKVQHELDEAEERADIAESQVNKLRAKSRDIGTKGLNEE
bovine cardiac myofibrils (full-length cardiac myosin ATPase in the native sarcomere), sequence (P85100 whole entry partner): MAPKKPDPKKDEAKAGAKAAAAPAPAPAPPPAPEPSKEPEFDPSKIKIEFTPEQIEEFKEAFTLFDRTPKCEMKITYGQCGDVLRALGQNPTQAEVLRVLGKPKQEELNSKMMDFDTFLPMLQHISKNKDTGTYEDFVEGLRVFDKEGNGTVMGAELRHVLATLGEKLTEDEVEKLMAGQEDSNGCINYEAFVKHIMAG
bovine cardiac myofibrils (full-length cardiac myosin ATPase in the native sarcomere), sequence (Q3SZE5 whole entry partner): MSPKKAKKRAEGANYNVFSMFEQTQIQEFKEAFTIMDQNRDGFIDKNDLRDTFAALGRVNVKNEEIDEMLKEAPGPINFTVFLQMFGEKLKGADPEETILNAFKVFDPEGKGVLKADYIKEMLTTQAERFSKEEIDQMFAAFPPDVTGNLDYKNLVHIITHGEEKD

In general, IC50 refers to the concentration that inhibits the measured activity by half. Turning to `CN1CCN(C(=O)N[C@@H]2CCc3cc(-c4noc(C(F)F)n4)ccc32)CC1` [Compound 302, (R)-N-(5-(5-(difluoromethyl)-1,2,4-oxadiazol-3-yl)-2,3-dihydro-1H-inden-1-yl)-4-methylpiperazine-1-carboxamide], the “CDMF75 IC15” value stood at 39200 nM and the IC50 was over 39200 nM.

Consider `CCc1nc(-c2ccc3c(c2)OC[C@H]3NC(=O)c2conc2C)no1` [Compound 340, (S)-N-(6-(5-ethyl-1,2,4-oxadiazol-3-yl)-2,3-dihydrobenzofuran-3-yl)-3-methylisoxazole-4-carboxamide], for which the “CDMF75 IC15” value is 300 nM and the IC50 is 700 nM.

`O=C(N[C@@H]1CCc2cc(-c3noc(C(F)F)n3)ccc21)C1CC1` [Compound 310, (R)-N-(5-(5-(difluoromethyl)-1,2,4-oxadiazol-3-yl)-2,3-dihydro-1H-inden-1-yl)cyclopropanecarboxamide]: the “CDMF75 IC15” value came out at 2900 nM and the IC50 was determined as 11300 nM.

With `CCn1nccc1C(=O)NC1CCc2cc(-c3noc(C)n3)ccc21` (centres unmarked) [Compound 56, 1-ethyl-N-(5-(5-methyl-1,2,4-oxadiazol-3-yl)-2,3-dihydro-1H-inden-1-yl)-1H-pyrazole-5-carboxamide], the “CDMF75 IC15” value was determined as 2500 nM and the IC50 was 8500 nM.

`Cc1cnc(C(=O)N[C@@H]2CCc3cc(-c4noc(C(F)F)n4)ccc32)o1` [Compound 681, (R)-N-(5-(5-(difluoromethyl)-1,2,4-oxadiazol-3-yl)-2,3-dihydro-1H-inden-1-yl)-5-methyloxazole-2-carboxamide]: the “CDMF75 IC15” value is 1300 nM and the IC50 came out at 5900 nM.

As for `Cc1cc(C(=O)NC2COc3cc(-c4noc(C(F)F)n4)ccc32)n(C)n1` (centres unmarked) [Compound 190, N-(6-(5-(difluoromethyl)-1,2,4-oxadiazol-3-yl)-2,3-dihydrobenzofuran-3-yl)-1,3-dimethyl-1H-pyrazole-5-carboxamide], the “CDMF75 IC15” value was 600 nM and the IC50 was determined as 2000 nM.

`O=C(NC1CCc2cc(-c3noc(C(F)F)n3)ccc21)c1cn[nH]c1` (centres unmarked) [Compound 50, N-(5-(5-(difluoromethyl)-1,2,4-oxadiazol-3-yl)-2,3-dihydro-1H-inden-1-yl)-1H-pyrazole-4-carboxamide]: the “CDMF75 IC15” value is 1500 nM and the IC50 was 5200 nM.

As to `COCc1nc(-c2ccc3c(c2)CC[C@H]3NC(=O)c2cccc(CO)c2)no1` [Compound 668, (R)-3-(hydroxymethyl)-N-(5-(5-(methoxymethyl)-1,2,4-oxadiazol-3-yl)-2,3-dihydro-1H-inden-1-yl)benzamide], the “CDMF75 IC15” value was 600 nM and the IC50 came to 2200 nM.

Turning to `Cc1ccnc(C(=O)NC2CCc3cc(-c4noc(C(F)F)n4)ccc32)c1` (centres unmarked) [Compound 67, N-(5-(5-(difluoromethyl)-1,2,4-oxadiazol-3-yl)-2,3-dihydro-1H-inden-1-yl)-4-methylpicolinamide], the “CDMF75 IC15” value was 900 nM and the IC50 was 4700 nM.

For `O=C(N[C@@H]1CCc2cc(-c3noc(C4CCC4)n3)ccc21)c1nnn(Cc2ccccc2)n1` [Compound 503, (R)-2-benzyl-N-(5-(5-cyclobutyl-1,2,4-oxadiazol-3-yl)-2,3-dihydro-1H-inden-1-yl)-2H-tetrazole-5-carboxamide], the “CDMF75 IC15” value was 800 nM and the IC50 was determined as 3400 nM.

In the case of `CCc1nc(-c2ccc3c(c2)CC[C@H]3NC(=O)c2cocn2)no1` [Compound 587, (R)-N-(5-(5-ethyl-1,2,4-oxadiazol-3-yl)-2,3-dihydro-1H-inden-1-yl)oxazole-4-carboxamide], the “CDMF75 IC15” value turned out to be 2500 nM and the IC50 worked out at 12900 nM.

Regarding `CCc1nc(-c2ccc3c(c2)CC[C@H]3NC(=O)c2ccncn2)no1` [Compound 630, (R)-N-(5-(5-ethyl-1,2,4-oxadiazol-3-yl)-2,3-dihydro-1H-inden-1-yl)pyrimidine-4-carboxamide], the “CDMF75 IC15” value is 500 nM and the IC50 is 1800 nM.

As for `CCc1nc(-c2ccc3c(c2)OCCC3NC(=O)c2ccnn2C)no1` (centres unmarked) [Compound 536, N-(7-(5-ethyl-1,2,4-oxadiazol-3-yl)chroman-4-yl)-1-methyl-1H-pyrazole-5-carboxamide], the “CDMF75 IC15” value came out at 1100 nM and the IC50 worked out at 3500 nM.

With `Cc1ncoc1C(=O)N[C@@H]1CCc2cc(-c3noc(C4CCC4)n3)ccc21` [Compound 409, (R)-N-(5-(5-cyclobutyl-1,2,4-oxadiazol-3-yl)-2,3-dihydro-1H-inden-1-yl)-4-methyloxazole-5-carboxamide], the “CDMF75 IC15” value amounted to 200 nM and the IC50 was determined as 700 nM.

On to `Cc1nc(-c2ccc3c(c2)CC[C@H]3NC(=O)C(F)F)no1` [Compound 435, (R)-2,2-difluoro-N-(5-(5-methyl-1,2,4-oxadiazol-3-yl)-2,3-dihydro-1H-inden-1-yl)acetamide], for which the “CDMF75 IC15” value came to 2600 nM and the IC50 was 11300 nM.

Take `CC(C)c1nc(-c2ccc3c(c2)CC[C@H]3NC(=O)C(F)F)no1` [Compound 438, (R)-2,2-difluoro-N-(5-(5-isopropyl-1,2,4-oxadiazol-3-yl)-2,3-dihydro-1H-inden-1-yl)acetamide]: the “CDMF75 IC15” value turned out to be 3700 nM and the IC50 was 15800 nM.

`CCc1nc(-c2ccc3c(c2)C[C@H](O)[C@H]3NC(=O)c2cnn(C)c2)no1` [Compound 495, N-((1S,2S)-5-(5-ethyl-1,2,4-oxadiazol-3-yl)-2-hydroxy-2,3-dihydro-1H-inden-1-yl)-1-methyl-1H-pyrazole-4-carboxamide]: the “CDMF75 IC15” value worked out at 10000 nM and the IC50 turned out to be 39200 nM.

Turning to `CCc1nc(-c2ccc3c(c2)CCC3C(=O)Nc2ccnc(C)c2)no1` (centres unmarked) [Compound 483, 5-(5-ethyl-1,2,4-oxadiazol-3-yl)-N-(2-methylpyridin-4-yl)-2,3-dihydro-1H-indene-1-carboxamide], the “CDMF75 IC15” value amounted to 2000 nM and the IC50 is 6800 nM.

For `Cc1nc(-c2ccc3c(c2)OCC3NC(=O)c2ccnn2C)no1` (centres unmarked) [Compound 121, 1-methyl-N-(6-(5-methyl-1,2,4-oxadiazol-3-yl)-2,3-dihydrobenzofuran-3-yl)-1H-pyrazole-5-carboxamide], the “CDMF75 IC15” value stood at 1000 nM and the IC50 was 3100 nM.

For the compound `Cc1nc(-c2ccc3c(c2)OC[C@H]3NC(=O)c2cnc(C)o2)no1` [Compound 167, (S)-2-methyl-N-(6-(5-methyl-1,2,4-oxadiazol-3-yl)-2,3-dihydrobenzofuran-3-yl)oxazole-5-carboxamide], the “CDMF75 IC15” value was determined as 1000 nM and the IC50 turned out to be 3800 nM.

For `CCc1nc(-c2ccc3c(c2)CC[C@H]3NC(=O)c2ccncc2)no1` [Compound 628, (R)-N-(5-(5-ethyl-1,2,4-oxadiazol-3-yl)-2,3-dihydro-1H-inden-1-yl)isonicotinamide], the “CDMF75 IC15” value came out at 300 nM and the IC50 stood at 1000 nM.

As to `O=C(N[C@@H]1COc2cc(-c3noc(C(F)F)n3)ccc21)c1cccc(CO)c1` [Compound 701, (S)-N-(6-(5-(difluoromethyl)-1,2,4-oxadiazol-3-yl)-2,3-dihydrobenzofuran-3-yl)-3-(hydroxymethyl)benzamide], the “CDMF75 IC15” value stood at 300 nM and the IC50 turned out to be 1100 nM.
